Data taken from patent US20220227782A1, “COMPOUND FOR INHIBITING RORyt ACTIVITY, PREPARATION METHOD THEREFOR AND APPLICATION THEREOF” (CELLREGEN (BEIJING) LIFE SCIENCE AND TECHNOLOGY CO., LTD., priority 2019, published 2022).

What was measured:
[1] = molecular target: T1, RORγt (Homo sapiens, UniProt P51449); experiment: EC50 test, inhibition of RORγt transcription activity (luciferase activity reporter system) in RORγt-LBD+-Jurkat cells; assay type: cell-based; conditions: for EC50: half maximal effective concentration against RORγt-LBD+-Jurkat cells
T1 construct: half maximal effective concentration against RORγt-LBD+-Jurkat cells; expressed in transfected cells; host or cells: Jurkat
T1 sequence (P51449 269-508 limits assumed): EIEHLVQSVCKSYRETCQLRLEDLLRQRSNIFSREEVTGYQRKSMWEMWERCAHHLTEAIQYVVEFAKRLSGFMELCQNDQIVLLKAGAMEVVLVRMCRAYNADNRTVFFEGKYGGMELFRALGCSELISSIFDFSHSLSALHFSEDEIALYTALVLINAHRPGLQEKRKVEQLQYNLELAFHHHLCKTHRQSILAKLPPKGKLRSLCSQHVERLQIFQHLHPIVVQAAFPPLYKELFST
Source text: (§1) EC50 and CC50 tests: EC50 (half maximal (50%) effective concentration) is a half maximal effective concentration against RORγt-LBD+-Jurkat cells, and CC50 (median (50%) cytotoxic concentration) is a median cytotoxic concentration against RORγt-LBD+-Jurkat cells.

[2] = CC50 test, median cytotoxic concentration against RORγt-LBD+-Jurkat cells; assay type: cell-based; conditions: human
Source text: as §1

[3] = tested on: IL-17A; experiment: Intracellular protein expression of IL-17A (flow cytometer), Th17 cells; assay type: cell-based; conditions: FIG. 21; 1.56, 3.12 and 6.25 μM compound vs solvent group
Source text: The compound for inhibiting RORγt activity as described above may be used in preparation of a therapeutic formulation for the treatment of autoimmune diseases, in preparation of a formulation that inhibits formation of a Th17 cell, in preparation of a formulation that inhibits the RORγt transcription activity, or in preparation of a formulation that inhibits transcription and expression of IL17A gene and/or IL17F gene. The compounds having the structural formula (A) has a good inhibitory effect on RORγt activity. […] Therefore, the compound may be used to produce a formulation of corresponding activity inhibitor, and provide a leading structure for the development of therapeutic drugs for autoimmune diseases.
(§2) In the figure, the results of solvent group, 1.56 μM compound group, 3.12 μM compound group, and 6.25 μM compound group are shown from left to right.

[4] = tested on: RORγt, IL17A, IL-17F mRNA; experiment: mRNA expression of RORγt, IL17A and IL-17F in Th17 cell differentiation in vitro; assay type: cell-based; conditions: FIG. 22, 1.56, 3.12 and 6.25 μM compound vs solvent group
Description: as §2

[5] = tested on: EAE; conditions: high concentrations (40 mg/kg); cited from earlier work
[6] = tested on: Th17 cells; conditions: cited from earlier work
[7] = tested on: other RORs; conditions: cited from earlier work

Structure (SMILES)	EC50 [1] [µM]	CC50 [2] [µM]	also measured
Cc1nc(Sc2nnnn2-c2ccccc2)c2c3c(sc2n1)CCCC3 [Compound 6]	2.79	3.98	inhibition of intracellular protein expression of IL-17A (in words) [3]: significant inhibitory effects; inhibition of mRNA expression of RORγt, IL17A and IL-17F (in words) [4]: significant inhibitory effects
Cc1nc(Sc2nnnn2-c2ccccc2)c2c3c(sc2n1)CC(C(C)(C)C)CC3 (stereo not drawn) [Compound 11]	8.25	< 1	–
Cc1nc(Sc2nnnn2-c2ccccc2)c2c3c(sc2n1)CC(C(=O)NC1CCOCC1)CC3 (stereo not drawn) [Compound 15]	> 10	< 10	–
Cc1cccc(NC(=O)C2CCc3c(sc4nc(C)nc(Sc5nnnn5-c5ccccc5)c34)C2)c1 (stereo not drawn) [Compound 16]	> 10	< 10	–
Cc1nc(Sc2nnnn2-c2ccccc2)c2c3c(sc2n1)CC(C(=O)Nc1ccc(C(C)C)cc1)CC3 (stereo not drawn) [Compound 17]	> 10	< 1	–
Cc1nc(Sc2nnnn2-c2ccccc2)c2c3c(sc2n1)CC(C(=O)Nc1nccs1)CC3 (stereo not drawn) [Compound 21]	> 10	< 10	–
Cc1nc(Sc2nnnn2-c2ccccc2)c2c3c(sc2n1)CC(C(=O)Nc1ncc(C)s1)CC3 (stereo not drawn) [Compound 22]	9.06	4.32	inhibition of intracellular protein expression of IL-17A (in words) [3]: significant inhibitory effects; inhibition of mRNA expression of RORγt, IL17A and IL-17F (in words) [4]: significant inhibitory effects
Cc1nc(Sc2nnnn2-c2ccccc2)c2c3c(sc2n1)CC(C(=O)Nc1cccnc1)CC3 (stereo not drawn) [Compound 23]	> 10	< 5	–
Cc1nc(Sc2nnnn2-c2ccccc2)c2c3c(sc2n1)CC(C(=O)Nc1ccc(F)cn1)CC3 (stereo not drawn) [Compound 24]	> 10	< 10	–
O=C(Cc1nc(Sc2nnnn2-c2ccccc2)c2c3c(sc2n1)CCCC3)Nc1nc2ccccc2[nH]1 [Compound 31]	0.85	9.18	inhibiting RORγt transcription activity (in words) ([1]; FIG. 20): significant effect; inhibition of intracellular protein expression of IL-17A (in words) [3]: significant inhibitory effects; inhibition of mRNA expression of RORγt, IL17A and IL-17F (in words) [4]: significant inhibitory effects
CC(=O)Nc1nc(C)c(S(=O)(=O)Nc2ccc(C(O)(C(F)(F)F)C(F)(F)F)cc2)s1 [SR1001]	–	–	reduction of clinical symptoms of EAE in vivo [5]: only reduce the clinical symptoms of EAE slightly; inhibition of differentiation of Th17 cells in vitro [6]: effectively inhibit the differentiation of Th17 cells; selectivity (interaction with other RORs) [7]: poor selectivity

Now from value to compound, other results behind:

EC50 [1] [µM]	Structure (SMILES)	CC50 [2] [µM]	also measured
> 10	Cc1nc(Sc2nnnn2-c2ccccc2)c2c3c(sc2n1)CC(C)CC3 (stereo not drawn) [Compound 7]	> 10	–
> 10	CCC1CCc2c(sc3nc(C)nc(Sc4nnnn4-c4ccccc4)c23)C1 (stereo not drawn) [Compound 8]	> 10	–
> 10	CCCC1CCc2c(sc3nc(C)nc(Sc4nnnn4-c4ccccc4)c23)C1 (stereo not drawn) [Compound 9]	> 10	–
1.35	Cc1nc(Sc2nnnn2-c2ccccc2)c2c3c(sc2n1)CC(F)(F)CC3 [Compound 12]	< 1	–
> 20	Cc1nc(Sc2nnnn2-c2ccccc2)c2c3c(sc2n1)CC(C(=O)O)CC3 (stereo not drawn) [Compound 14]	> 10	–
12.6	Cc1nc(Sc2nnnn2-c2ccccc2)c2c3c(sc2n1)CC(C(=O)NCc1ccccc1)CC3 (stereo not drawn) [Compound 18]	> 10	–
> 10	Cc1nc(Sc2nnnn2-c2ccccc2)c2c3c(sc2n1)CC(C(=O)Nc1cccc(Cl)c1)CC3 (stereo not drawn) [Compound 19]	< 10	–
> 10	Cc1nc(Sc2nnnn2-c2ccccc2)c2c3c(sc2n1)CC(C(=O)Nc1ccc(Br)cc1)CC3 (stereo not drawn) [Compound 20]	< 10	–
> 10	Cc1nc(Sc2nnnn2-c2ccccc2)c2c3c(sc2n1)CC(C(=O)Nc1nc2ccc(F)cc2s1)CC3 (stereo not drawn) [Compound 25]	< 5	–
